In US11873291B2, “Quinoline cGAS antagonist compounds” (ImmuneSensor Therapeutics, Inc., priority 2020, dated 2024):

These molecules were tested against T1, recombinant human cGAS (aa147-522) (Homo sapiens, UniProt Q8N884) (assay: In vitro inhibition assay of cGAS activity (ATP consumption, KinaseGlo Max)). Details: Table 2, read-out: cGAS Inhibition Results IC50.
T1 construct: recombinant human cGAS (aa147-522); His6-SUMO (cleaved yes); made in house; host or cells: E. coli BL21/pLys
Assay type: biochemical
Method in brief: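 IC50 came from plotting % ATP consumption against log compound concentration, with leftover ATP detected by KinaseGlo Max chemiluminescence. Reactions ran 20 min at 37 °C with 1.5 μg/mL human cGAS (aa147-522), 6.6 μM ATP, 0.1 mM GTP and 0.01 mg/mL DNA at pH 7.5.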

T1 sequence (Q8N884 147-522): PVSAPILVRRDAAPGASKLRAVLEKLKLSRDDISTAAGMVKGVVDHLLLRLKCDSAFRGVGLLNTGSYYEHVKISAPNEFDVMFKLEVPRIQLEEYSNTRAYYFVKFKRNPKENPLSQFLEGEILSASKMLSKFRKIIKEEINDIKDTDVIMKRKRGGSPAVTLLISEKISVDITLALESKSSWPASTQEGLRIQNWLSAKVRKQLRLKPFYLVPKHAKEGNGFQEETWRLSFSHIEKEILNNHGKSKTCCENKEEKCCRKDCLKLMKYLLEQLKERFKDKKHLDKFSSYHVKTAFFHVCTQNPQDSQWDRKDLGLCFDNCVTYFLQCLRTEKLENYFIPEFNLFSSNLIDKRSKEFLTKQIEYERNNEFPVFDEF

| SMILES | IC50 |
| --- | --- |
| Clc1ccc2c(Cl)cc(-c3cn[nH]c3)nc2c1Cl [I-404, 4,7,8-trichloro-2-(1H-pyrazol-4-yl)quinoline] | > 30 µM |
| Clc1ccc2c(-c3cn[nH]c3)cc(-c3ccccc3)nc2c1 [I-67] | 2 to 30 µM |
| CCOc1cc(-n2ccnc2)c2ccc(Cl)cc2n1 [I-280] | > 30 µM |
| O=C1NC(=O)C(CCCc2cc(-c3cn[nH]c3)c3ccc(Cl)c(Cl)c3n2)S1 (stereo not drawn) [I-272, 5-(3-(7,8-dichloro-4-(1H-pyrazol-4-yl)quinolin-2-yl)propyl)thiazolidine-2,4-dione] | 2 to 30 µM |
| O=P(O)(O)CCCNc1cc(-c2cn[nH]c2)c2ccc(Cl)c(Cl)c2n1 [I-397, (3-((7,8-dichloro-4-(1H-pyrazol-4-yl)quinolin-2-yl)amino)propyl)phosphonic acid] | < 2 µM |
| O=C(O)c1cc(-c2cc(-n3ccnc3)c3ccc(Cl)cc3n2)ccc1O [I-16, 5-(7-chloro-4-(1H-imidazol-1-yl)quinolin-2-yl)-2-hydroxybenzoic acid] | > 30 µM |
| O=C(O)C1CCC=C(c2cc(-c3cn[nH]c3)c3ccc(Cl)c(Cl)c3n2)C1 (stereo not drawn) [I-273, 3-(7,8-dichloro-4-(1H-pyrazol-4-yl)quinolin-2-yl)cyclohex-3-ene-1-carboxylic acid] | 2 to 30 µM |
| COC(=O)c1ccc(-c2cc(-n3ccnc3)c3ccc(Cl)cc3n2)cc1 [I-3] | > 30 µM |
| CCOc1ccc(-c2cc(-n3ccnc3)c3ccc(Cl)cc3n2)cc1C(=O)O [I-19, 5-(7-chloro-4-(1H-imidazol-1-yl)quinolin-2-yl)-2-ethoxybenzoic acid] | < 2 µM |
| CN(CCS(=O)(=O)O)c1cc(-n2ccnc2)c2ccc(Cl)c(Cl)c2n1 [I-159] | < 2 µM |
| Brc1ccc2c(-n3ccnc3)ccnc2c1 [I-412] | 2 to 30 µM |
| O=C(O)C1CN(c2cc(-n3ccnc3)c3ccc(Cl)c(Cl)c3n2)CCN1C(=O)CO (stereo not drawn) [I-83, 4-(7,8-dichloro-4-(1H-imidazol-1-yl)quinolin-2-yl)-1-(2-hydroxyacetyl)piperazine-2-carboxylic acid] | 2 to 30 µM |
| Clc1ccc2c(-n3ccnc3)cc(N3CCOCC3)nc2c1Cl [I-95] | 2 to 30 µM |
| OCC1CCCN(c2cc(-n3ccnc3)c3ccc(Cl)cc3n2)C1 (stereo not drawn) [I-140] | 2 to 30 µM |
| O=C1CN(c2cc(-n3ccnc3)c3ccc(Cl)cc3n2)CC(C(=O)O)N1 (stereo not drawn) [I-84] | 2 to 30 µM |
| O=C(O)c1cc(-c2cc(-n3ccnc3)c3ccc(Cl)cc3n2)ccc1F [I-17] | 2 to 30 µM |
| Cc1cc(NCCS(N)(=O)=O)c2ccc(Cl)c(Cl)c2n1 [I-308] | > 30 µM |
| CC(C)[C@@H](CC(=O)O)Nc1cc(-n2ccnc2)c2ccc(Cl)c(Cl)c2n1 [I-187] | 2 to 30 µM |

| SMILES | IC50 |
| --- | --- |
| COCn1nccc1S(=O)(=O)NCCN(C)c1cc(-n2ccnc2)c2ccc(Cl)cc2n1 [I-229] | > 30 µM |
| NS(=O)(=O)O[C@H]1CCCN(c2cc(-n3ccnc3)c3ccc(Cl)c(Cl)c3n2)C1 [I-119, (S)-1-(7,8-dichloro-4-(1H-imidazol-1-yl)quinolin-2-yl)piperidin-3-yl sulfamate] | 2 to 30 µM |
| O=P(O)(O)CCNc1cc(-n2ccnc2)c2ccc(Cl)c(Cl)c2n1 [I-250] | < 2 µM |
| c1ccc2c(-n3ccnc3)ccnc2c1 [I-410] | > 30 µM |
| O[C@H]1CCN(c2cc(-n3ccnc3)c3ccc(Cl)c(Cl)c3n2)C1 [I-144] | < 2 µM |
| Clc1c(-n2ccnc2)cc2c(-n3ccnc3)cc(-c3ccccc3)nc2c1Cl [I-52] | > 30 µM |
| Cc1cn(-c2cc(-c3ccccc3)nc3cc(Cl)ccc23)cn1 [I-60] | > 30 µM |
| CN(CCC(=O)N1CCCC(CO)C1)c1cc(-c2cn[nH]c2)c2ccc(Cl)c(Cl)c2n1 (stereo not drawn) [I-199] | 2 to 30 µM |
| Cc1ncn(-c2cc(-c3ccccc3)nc3cc(Cl)ccc23)c1C [I-61] | > 30 µM |
| CN(CCNS(=O)(=O)c1ccccc1)c1cc(-n2ccnc2)c2ccc(Cl)cc2n1 [I-227] | > 30 µM |
| NS(=O)(=O)CC1CCCN1c1cc(-n2ccnc2)c2ccc(Cl)c(Cl)c2n1 (stereo not drawn) [I-148] | < 2 µM |
| O=C(O)c1cc(-c2cc(-n3ccnc3)c3ccc(Cl)cc3n2)cs1 [I-55] | < 2 µM |
| Cc1c(Cl)ccc2c(-n3ccnc3)ccnc12 [I-421, 7-chloro-4-(1H-imidazol-1-yl)-8-methylquinoline] | 2 to 30 µM |
| Cc1cc(NCCC(=O)O)c2ccc(Cl)c(Cl)c2n1 [I-309] | > 30 µM |
| O=C(O)[C@H]1CCCN1c1cc(-c2cn[nH]c2)nc2c(Cl)c(Cl)ccc12 [I-292] | 2 to 30 µM |
| O=P(O)(O)CNc1cc(-c2cn[nH]c2)c2ccc(Cl)c(Cl)c2n1 [I-254, (7,8-dichloro-4-(1H-pyrazol-4-yl)quinolin-2-ylamino)methylphosphonic acid] | < 2 µM |
| O=C(O)c1cncc(-c2cc(-n3ccnc3)c3ccc(Cl)cc3n2)c1 [I-32] | < 2 µM |
| CN(CCC(=O)NCCC(=O)O)c1cc(-c2cn[nH]c2)c2ccc(Cl)c(Cl)c2n1 [I-320] | < 2 µM |

Same assay, conditions: Table 3, read-out: cGAS Inhibition Results IC50

| SMILES | IC50 |
| --- | --- |
| O=C(O)CCOCCOc1cc(-n2ccnc2)c2ccc(Cl)c(Cl)c2n1 [I-828, 3-(2-((7,8-dichloro-4-(1H-imidazol-1-yl)quinolin-2-yl)oxy)ethoxy)propanoic acid] | 2 to 30 µM |
| CO[C@@H]1C[C@@H](COCCC(=O)O)N(c2cc(-n3ccnc3)c3ccc(Cl)c(Cl)c3n2)C1 [I-711] | < 2 µM |
| COC(=O)CCNC(=O)[C@@H]1[C@@H](O)CCN1c1cc(-n2ccnc2)c2ccc(Cl)c(Cl)c2n1 [I-791, methyl 3-((2S,3S)-1-(7,8-dichloro-4-(1H-imidazol-1-yl)quinolin-2-yl)-3-hydroxypyrrolidine-2-carboxamido)propanoate] | 2 to 30 µM |
| COC(=O)[C@@H]1[C@@H](O)CCN1c1cc(-n2ccnc2)c2ccc(Cl)c(Br)c2n1 [I-872] | 2 to 30 µM |
| CC(C)N(CCOCCC(=O)O)c1cc(-n2ccnc2)c2ccc(Cl)c(Cl)c2n1 [I-833] | < 2 µM |
| O=C(COC[C@@H]1CCCN1c1cc(-n2ccnc2)c2ccc(Cl)c(Cl)c2n1)NO [I-761] | < 2 µM |
| O=C(C[C@@H]1CCCN1c1cc(-n2ccnc2)c2ccc(Cl)c(Cl)c2n1)NC1CCCNC1=O (stereo partly drawn) [I-544] | 2 to 30 µM |
| OC1CC2CCCC(C1)N2c1cc(-n2ccnc2)c2ccc(Cl)c(Cl)c2n1 (stereo not drawn) [I-492] | 2 to 30 µM |
| O=C(O)c1ccnn1CC[C@@H]1CCCN1c1cc(-n2ccnc2)c2ccc(Cl)c(Cl)c2n1 [I-729] | < 2 µM |
| O=C(O)CCOCC(COCCC(=O)O)Nc1cc(-n2ccnc2)c2ccc(Cl)c(Cl)c2n1 [I-874] | < 2 µM |
| COc1ccc(OCCCN(c2cc(-n3ccnc3)c3ccc(Cl)c(Cl)c3n2)C(C)C)c(C(=O)O)c1 [I-849] | 2 to 30 µM |
| O=C(O)[C@@H]1CCCN1C(=O)[C@@H]1CCCN1c1cc(-n2ccnc2)c2ccc(Cl)c(Cl)c2n1 [I-552] | < 2 µM |
| CN(CCNC(=O)c1cccc(C(=O)O)c1)c1cc(-n2ccnc2)c2ccc(Cl)c(Cl)c2n1 [I-620] | 2 to 30 µM |
| COC(=O)c1cccc(S(=O)(=O)NCCN(C)c2cc(-n3ccnc3)c3ccc(Cl)c(Cl)c3n2)c1 [I-609] | > 30 µM |
| CC(C)N(CCCOc1ccncc1C(=O)O)c1cc(-n2ccnc2)c2ccc(Cl)c(Cl)c2n1 [I-851] | 2 to 30 µM |
| CC(C)N(CCCOc1ccc(Cl)cc1C(=O)O)c1cc(-n2ccnc2)c2ccc(Cl)c(Cl)c2n1 [I-848, 5-chloro-2-(3-((7,8-dichloro-4-(1H-imidazol-1-yl)quinolin-2-yl)(isopropyl)amino)propoxy) benzoic acid] | 2 to 30 µM |
| NS(=O)(=O)CC1CCCN1C(=O)C[C@@H]1CCCN1c1cc(-n2ccnc2)c2ccc(Cl)c(Cl)c2n1 (stereo partly drawn) [I-534] | 2 to 30 µM |
| COC(=O)[C@@H]1C[C@H](OCCC(=O)O)CN1c1cc(-n2ccnc2)c2ccc(Cl)c(Cl)c2n1 [I-871] | 2 to 30 µM |
| O=C(O)[C@@H]1CC[C@@H](CCO)N1c1cc(-n2ccnc2)c2ccc(Cl)c(Cl)c2n1 [I-783, (2S,5S)-1-(7,8-dichloro-4-(1H-imidazol-1-yl)quinolin-2-yl)-5-(2-hydroxyethyl)pyrrolidine-2-carboxylic acid] | < 2 µM |
| Cn1cc(-c2cc(N3CCC[C@H]3COCCC(=O)O)nc3c(Cl)c(Cl)ccc23)cn1 [I-826] | > 30 µM |
| O=C(O)[C@H]1[C@H](O)CCN1c1cc(-n2ccnc2)c2ccc(Cl)c(Cl)c2n1 [I-498] | 2 to 30 µM |
| O=C(O)[C@@H]1C[C@H](O)CN1c1cc(-n2ccnc2)c2ccc(Cl)c(Cl)c2n1 [I-455] | < 2 µM |

The molecules below were run on cGAS activity in Reporter THP1 cell line (assay: Cellular assay to measure cGAS activity: ISRE-Gaussia luciferase reporter THP1 cells transfected with ISD). Details: Homo sapiens, THP-1, Table 4, Gaussia luciferase.
Assay type: cell-based
Protocol: Cellular assay to measure cGAS activity: Reporter THP1 cell line harboring a gene encoding Gaussia Luciferase under the control of 5 tandem repeats of interferon-stimulated response elements (ISRE) fused to an ISG54 minimal promoter was used to test inhibition of cGAS activity by synthetic compounds in human cells. These cells were plated on 96-well plates at 0.3×10^6/well and incubated with serial dilutions of compounds or DMSO for 5 min, followed by transfection of 2 μg/mL of ISD (Interferon Stimulatory DNA, a 45 bp DNA oligo) or mock transfected using lipofectamine 2000 (Life Technology) method, according to manufacturer's instructions. 16 hours later, 15 μL of the media from each well was transferred to a new plate, 50 μL of solution containing 50 mM Hepes-NaOH, pH 6.5, 50 mM NaCl, 10 mM EDTA, 1 μM of coelenterazine was added to each well and luminescence was measured immediately. Fold increase in luminescence compared to mock transfection was plotted against concentrations of each compound, and IC50 is calculated using Graphpad. To evaluate the specificity of a compound, the same procedure was performed except that cells were transfected with 2 μg/mL poly(I:C) or infected with Sendai Virus (SeV) at 50 Unit/mL, which are known to activate the RIG-I-MAVS pathway. A specific inhibitory compound should inhibit interferon induction by DNA but have minimal effect on poly(I:C) or Sendai virus induced interferon reporter gene expression.
The letter codes for cGAS IC50 include: A (<2 μM); B (2-10 μM); C (>10 μM).

| SMILES | IC50 |
| --- | --- |
| CO[C@@H]1C[C@@H](COCCC(=O)O)N(c2cc(-n3ccnc3)c3ccc(Cl)c(Cl)c3n2)C1 [I-711] | < 2 µM |
| O=C(O)C1CC[C@H](c2ccccc2)N1c1cc(-n2ccnc2)c2ccc(Cl)c(Cl)c2n1 (stereo partly drawn) [I-487] | 2 to 10 µM |

Same assay, conditions: Homo sapiens, THP-1, untitled table after Table 4 (continuation)

| SMILES | IC50 |
| --- | --- |
| O=C(O)CCOCCOc1cc(-n2ccnc2)c2ccc(Cl)c(Cl)c2n1 [I-828, 3-(2-((7,8-dichloro-4-(1H-imidazol-1-yl)quinolin-2-yl)oxy)ethoxy)propanoic acid] | > 10 µM |
| COC(=O)CCNC(=O)[C@@H]1[C@@H](O)CCN1c1cc(-n2ccnc2)c2ccc(Cl)c(Cl)c2n1 [I-791, methyl 3-((2S,3S)-1-(7,8-dichloro-4-(1H-imidazol-1-yl)quinolin-2-yl)-3-hydroxypyrrolidine-2-carboxamido)propanoate] | > 10 µM |
| COC(=O)[C@@H]1[C@@H](O)CCN1c1cc(-n2ccnc2)c2ccc(Cl)c(Br)c2n1 [I-872] | < 2 µM |
| CC(C)N(CCOCCC(=O)O)c1cc(-n2ccnc2)c2ccc(Cl)c(Cl)c2n1 [I-833] | < 2 µM |
| O=C(COC[C@@H]1CCCN1c1cc(-n2ccnc2)c2ccc(Cl)c(Cl)c2n1)NO [I-761] | > 10 µM |
| O=C(O)CCOC[C@@H]1[C@@H]2CC2CN1c1cc(-n2ccnc2)c2ccc(Cl)c(Cl)c2n1 (stereo in doubt) [I-809] | < 2 µM |
